# Measurements taken from patent US12011444B2, “N-substituted indole derivatives as PGE2 receptor modulators” (Idorsia Pharmaceuticals Ltd, priority 2015, dated 2024).
# Key:
# PTGER2 (EP2) = PTGER2 (EP2) (Homo sapiens (Human), UniProt P43116); experiment: hEP2 b-arrestin assay (PathHunter HEK 293 PTGER2 b-arrestin cells); type: cell-based
# Outline: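 Readout is β-galactosidase complementation luminescence, expressed as percent of DMSO control (duplicates). PathHunter HEK293 EP2/β-arrestin 2 cells, grown 24 h, received compound for 15 min at 37 °C before a 120 min challenge with PGE2 at 5 μM final, followed by 1 h detection at room temperature.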
# PTRGER4 (EP4) = PTRGER4 (EP4) (Homo sapiens (Human), UniProt P35408); experiment: hEP4 b-arrestin assay (PathHunter HEK 293 PTGER4 b-arrestin cells); type: cell-based
# PTRGER4 (EP4), sequence (P35408 whole entry, looked up, the tested form may be a part): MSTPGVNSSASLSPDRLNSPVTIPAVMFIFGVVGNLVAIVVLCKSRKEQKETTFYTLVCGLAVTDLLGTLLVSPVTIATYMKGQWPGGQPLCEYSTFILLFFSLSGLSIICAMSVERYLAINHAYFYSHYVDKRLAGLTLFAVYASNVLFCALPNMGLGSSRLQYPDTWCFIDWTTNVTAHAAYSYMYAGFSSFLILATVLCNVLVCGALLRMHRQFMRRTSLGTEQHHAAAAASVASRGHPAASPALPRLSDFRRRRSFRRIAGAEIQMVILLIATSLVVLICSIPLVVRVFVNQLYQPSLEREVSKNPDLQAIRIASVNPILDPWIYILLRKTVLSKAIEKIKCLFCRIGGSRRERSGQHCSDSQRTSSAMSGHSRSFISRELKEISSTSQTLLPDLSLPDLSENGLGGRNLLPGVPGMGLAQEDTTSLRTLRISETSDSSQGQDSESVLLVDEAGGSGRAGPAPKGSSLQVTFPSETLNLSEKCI
# Outline: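 Antagonist mode: compound is given 15 min at 37 °C, then 20 nM (final) PGE2 for 120 min, in HEK293 cells stably expressing EP4 fused to ProLink and β-arrestin 2 fused to EA. Recruitment read as β-gal luminescence after 1 h reagent at room temperature, as percent of DMSO control.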
# [1] = antagonistic activity on hEP2, mean where measured multiple times
# [2] = antagonistic activity on hEP4, mean where measured multiple times
# [3] = hEP2 b-arrestin assay (values without asterisk)
# [4] = hEP4 b-arrestin assay (values without asterisk)
# PTGER2 (EP2), sequence (P43116 whole entry): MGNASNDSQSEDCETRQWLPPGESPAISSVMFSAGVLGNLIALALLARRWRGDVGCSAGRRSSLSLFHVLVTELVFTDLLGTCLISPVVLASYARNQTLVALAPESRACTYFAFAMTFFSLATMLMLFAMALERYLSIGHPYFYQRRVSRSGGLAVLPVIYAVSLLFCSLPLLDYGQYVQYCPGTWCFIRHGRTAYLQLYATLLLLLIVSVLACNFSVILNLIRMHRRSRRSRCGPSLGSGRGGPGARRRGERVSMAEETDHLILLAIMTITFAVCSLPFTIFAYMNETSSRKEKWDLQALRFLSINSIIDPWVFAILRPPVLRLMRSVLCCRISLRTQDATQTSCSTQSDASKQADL
Compound,IC50 (PTGER2 (EP2); [1]) [nM],IC50 (PTRGER4 (EP4); [2]) [nM],IC50 (PTGER2 (EP2); [3]) [nM],IC50 (PTRGER4 (EP4); [4]) [nM]
"CSc1cc(-c2cc(NCCn3c(C)cc4c(F)c(F)cc(Cl)c43)ncn2)cc(Cl)c1C(=O)O [compound 339, 2-Chloro-4-{6-[2-(7-chloro-4,5-difluoro-2-methyl-indol-1-yl)-ethylamino]-pyrimidin-4-yl}-6-methylsulfanyl-benzoic acid]",5,989,,
"N#Cc1cc2c(Cl)cc(Cl)cc2n1CCNc1cc(-c2cc(C(F)(F)F)c(C(=O)O)s2)ncn1 [Example 856, 5-{6-[2-(4,6-Dichloro-2-cyano-indol-1-yl)-ethylamino]-pyrimidin-4-yl}-3-trifluoromethyl-thiophene-2-carboxylic acid]",,,8,52
"CNc1cc(-c2cc(NCCn3c(C)cc4c(F)ccc(F)c43)ncn2)ccc1C(=O)O [compound 134, 4-{6-[2-(4,7-Difluoro-2-methyl-indol-1-yl)-ethylamino]-pyrimidin-4-yl}-2-methylamino-benzoic acid]",1,174,,
"COc1ccc(F)c2c1cc(C)n2CCNc1cc(-c2cc(-c3ccccn3)c(C(=O)O)s2)ncn1 [Example 1066, 5-{6-[2-(7-Fluoro-4-methoxy-2-methyl-indol-1-yl)-ethylamino]-pyrimidin-4-yl}-3-pyridin-2-yl-thiophene-2-carboxylic acid]",,,3,48
CCc1cc(-c2cc(NCCn3c(C)cc4cc(OC)cc(F)c43)ncn2)sc1C(=O)O [compound 231],185,133,,
"Cc1ccc(F)c2c1cc(C)n2CCNc1cc(-c2ccc(C(=O)O)cc2)ncn1 [compound 15, 4-{6-[2-(7-Fluoro-2,4-dimethyl-indol-1-yl)-ethylamino]-pyrimidin-4-yl}-benzoic acid]",62,542,,
"COc1cc(F)cc2c1cc(C)n2CCNc1cc(-c2cc(O)c(C(=O)O)s2)ncn1 [Example 800, 5-{6-[2-(6-Fluoro-4-methoxy-2-methyl-indol-1-yl)-ethylamino]-pyrimidin-4-yl}-3-hydroxy-thiophene-2-carboxylic acid]",,,12,44
"CCOc1cc(-c2cc(NCCn3c(C)cc4c(OC)ccc(Cl)c43)ncn2)cc(C)c1C(=O)O [compound 365, 4-{6-[2-(7-Chloro-4-methoxy-2-methyl-indol-1-yl)-ethylamino]-pyrimidin-4-yl}-2-ethoxy-6-methyl-benzoic acid]",25,409,,
"CCNc1cc(-c2cc(NCCn3c(C)cc4ccc(OC)cc43)ncn2)ccc1C(=O)O [compound 170, 2-Ethylamino-4-{6-[2-(6-methoxy-2-methyl-indol-1-yl)-ethylamino]-pyrimidin-4-yl}-benzoic acid]",1,350,,
CCCc1cc(-c2cc(NCCn3c(C)cc4c(C#N)ccc(F)c43)ncn2)ccc1C(=O)O [compound 393],9,745,,
"Cc1ccc(F)c2c1cc(C)n2CCNc1cc(-c2ccc(C(N)=O)cc2)ncn1 [compound 25, 4-{6-[2-(7-Fluoro-2,4-dimethyl-indol-1-yl)-ethylamino]-pyrimidin-4-yl}-benzamide]",27,616,,
CCCC1NC(=O)c2ccc(-c3cc(NCCn4c(C)cc5c(OC)cccc54)ncn3)cc21 (racemic) [compound 314],15,303,,
Cc1ccc(F)c2c1cc(C)n2CCNc1cc(-c2ccc(C(=O)O)c(N)c2)ncn1 [compound 41],101,91,,
CNc1cc(-c2cc(NCCn3c(C)cc4c(OC)ccc(Cl)c43)ncn2)ccc1C(=O)O [compound 250],3,103,,
COc1c(-c2cc(NCCn3c(C)cc4c(OC)ccc(F)c43)ncn2)csc1C(=O)O [compound 215],139,972,,
CCCc1cc(-c2cc(NCCn3c(C)cc4cc(C)cc(Cl)c43)ncn2)ccc1C(=O)O [compound 266],53,953,,
CCOc1cc(-c2cc(NCCn3c(C)cc4c(OC)cccc43)ncn2)sc1C(=O)O [compound 216],2,22,,
Cc1n[nH]c2cc(-c3cc(NCCn4c(C)cc5c(C)cc(F)cc54)ncn3)ccc12 [compound 52],221,583,,
"COC(=O)Nc1ccc(-c2cc(NCCn3c(C)cc4c(OC)ccc(F)c43)ncn2)cc1 [Example 1041, (4-{6-[2-(7-Fluoro-4-methoxy-2-methyl-indol-1-yl)-ethylamino]-pyrimidin-4-yl}-phenyl)-carbamic acid methyl ester]",,,26,246
"CCOc1cc(-c2cc(NCCn3c(C)cc4c(OC)ccc(F)c43)ncn2)sc1C(C)O (stereo not shown) [Example 1053, 1-(3-Ethoxy-5-{6-[2-(7-fluoro-4-methoxy-2-methyl-indol-1-yl)-ethylamino]-pyrimidin-4-yl}-thiophen-2-yl)-ethanol]",,,10,100
"CCOc1cc(-c2cc(NCCn3c(C#N)cc4c(OC)ccc(F)c43)ncn2)sc1C(=O)OCc1oc(=O)oc1C [Example 1047, 5-{6-[2-(2-Cyano-7-fluoro-4-methoxy-indol-1-yl)-ethylamino]-pyrimidin-4-yl}-3-ethoxy-thiophene-2-carboxylic acid 5-methyl-2-oxo-[1,3]dioxol-4-ylmethyl ester]",,,5,3
"Cc1cc(-c2cc(NCCn3c(C)cc4c(C)ccc(F)c43)ncn2)cc(Cl)c1C(=O)O [compound 123, 2-Chloro-4-{6-[2-(7-fluoro-2,4-dimethyl-indol-1-yl)-ethylamino]-pyrimidin-4-yl}-6-methyl-benzoic acid]",30,158,,
"CCOc1cc(-c2cc(NCCn3c(C#N)cc4cccc(F)c43)ncn2)ccc1NCC(=O)O [Example 896, (4-{6-[2-(2-Cyano-7-fluoro-indol-1-yl)-ethylamino]-pyrimidin-4-yl}-2-ethoxy-phenylamino)-acetic acid]",,,2,34
"COc1cccc2c1cc(C)n2CCNc1cc(-c2ccc(-c3noc(C)n3)cc2)ncn1 [compound 179, [2-(4-Methoxy-2-methyl-indol-1-yl)-ethyl]-{6-[4-(5-methyl-[1,2,4]oxadiazol-3-yl)-phenyl]-pyrimidin-4-yl}-amine]",20,880,,

# Other lines, results leading:
IC50 (PTGER2 (EP2); [1]) [nM],IC50 (PTRGER4 (EP4); [2]) [nM],IC50 (PTGER2 (EP2); [3]) [nM],IC50 (PTRGER4 (EP4); [4]) [nM],Compound
,,15,28,"CCc1cc(-c2cc(NCCn3c(C#N)cc4c(OC)ccc(F)c43)ncn2)ccc1OCC(=O)O [Example 834, (4-{6-[2-(2-Cyano-7-fluoro-4-methoxy-indol-1-yl)-ethylamino]-pyrimidin-4-yl}-2-ethyl-phenoxy)-acetic acid]"
,,90,194,"COc1ccc(F)c2c1cc(C#N)n2CCNc1cc(-c2ccc(C(O)CO)cc2)ncn1 (racemic) [Example 862, rac-1-(2-{6-[4-(1,2-Dihydroxy-ethyl)-phenyl]-pyrimidin-4-ylamino}-ethyl)-7-fluoro-4-methoxy-1H-indole-2-carbonitrile]"
173,864,,,COc1ccc(F)c2c1cc(C)n2CCNc1cc(-c2cnc(N3CCOCC3)s2)ncn1 [compound 181]
,,25,151,"COc1ccc(F)c2c1cc(C#N)n2CCNc1cc(-c2ccc3c(=O)[nH][nH]c(=O)c3c2)ncn1 [Example 1064, 1-{2-[6-(1,4-Dioxo-1,2,3,4-tetrahydro-phthalazin-6-yl)-pyrimidin-4-ylamino]-ethyl}-7-fluoro-4-methoxy-1H-indole-2-carbonitrile]"
,,44,55,"COc1ccc(F)c2c1cc(C#N)n2CCNc1cc(-c2ccnc(N3CCC3)c2)ncn1 [Example 975, 1-{2-[6-(2-Azetidin-1-yl-pyridin-4-yl)-pyrimidin-4-ylamino]-ethyl}-7-fluoro-4-methoxy-1H-indole-2-carbonitrile]"
13,60,,,COc1ccc(F)c2c1cc(C)n2CCNc1cc(-c2ccc3ncccc3c2)ncn1 [compound 384]
28,536,,,COc1cc(-c2cc(NCCn3c(C)cc4c(OC)ccc(F)c43)ncn2)ccc1C(=O)O [compound 260]
31,182,,,"COc1ccc(F)c2c1cc(C)n2CCNc1cc(-c2ccc3c(c2)CN(C)C3=O)ncn1 [compound 204, 5-{6-[2-(7-Fluoro-4-methoxy-2-methyl-indol-1-yl)-ethylamino]-pyrimidin-4-yl}-2-methyl-2,3-dihydro-isoindol-1-one]"
,,21,10,"CCOc1cc(-c2cc(NCCn3c(C#N)cc4c(OC)ccc(F)c43)ncn2)sc1C(=O)Oc1ccccc1 [Example 1049, 5-{6-[2-(2-Cyano-7-fluoro-4-methoxy-indol-1-yl)-ethylamino]-pyrimidin-4-yl}-3-ethoxy-thiophene-2-carboxylic acid phenyl ester]"
,,33,6,"CCOc1cc(-c2cc(NCCn3c(C#N)cc4c(OC)ccc(F)c43)ncn2)sc1C(=O)N(C)C [Example 1025, 5-{6-[2-(2-Cyano-7-fluoro-4-methoxy-indol-1-yl)-ethylamino]-pyrimidin-4-yl}-3-ethoxy-thiophene-2-carboxylic acid dimethylamide]"
,,9,2,"CCOc1cc(-c2cc(NCCn3c(C#N)cc4c(OC)cc(F)c(F)c43)ncn2)ccc1NCC(=O)O [Example 945, (4-{6-[2-(2-Cyano-6,7-difluoro-4-methoxy-indol-1-yl)-ethylamino]-pyrimidin-4-yl}-2-ethoxy-phenylamino)-acetic acid]"
